Data as given in paper PMC11062899, “De novo development of small cyclic peptides that are orally bioavailable” (Nature Chemical Biology, 2023).

Molecular target: human α-thrombin (Homo sapiens, UniProt P00734)
Experiment: Sub-library screen for active and permeable cyclic peptides (PAMPA plus thrombin inhibition)
Format: biochemical
Details: crude, slopes normalized to DMSO; for Residual thrombin activity: Top sample: PAMPA acceptor well after 14 h, 5 μM donor; for Residual thrombin activity: Equilibrated sample: donor sample diluted to theoretical equilibrium (1 μM in assay)
Outline: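 Acylated cyclic peptides at 5 μM in PBS pH 7.4 with 5% DMSO were run through PAMPA for 14 h at room temperature. Acceptor wells and a diluted donor sample at 3 μM, representing maximum permeability, were preincubated 10 min with human α-thrombin (6 nM stock). Z-Gly-Gly-Arg-AMC (150 μM stock) fluorescence was then read for 30 min at 25 °C, and inhibition was taken against a no-peptide control.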

Row | Residual thrombin activity: Top sample | Residual thrombin activity: Equilibrated sample | SMILES
1 | 91.1 | 94.0 | CN1C(=O)[C@@H](NC(=O)c2ccc(Cl)s2)CSCc2ccc(cc2)CSCCNC(=O)C[C@H]2CCCN2C(=O)[C@@H]1Cc1ccccc1 [C1-X32-L3]
2 | 98.4 | 94.5 | O=C1C[C@H]2CCCN2C(=O)[C@H](Cc2ccc(Cl)cc2)NC(=O)[C@@H](NC(=O)c2ccc(Cl)s2)CCCSCCS(=O)(=O)CCSCCN1 [C3-X34-L2]
3 | 100.8 | 99.6 | COc1ccc(C[C@@H]2NC(=O)[C@@H](NC(=O)c3ccc(Cl)s3)CCSCc3ccc(cc3)CSCCNC(=O)C[C@H]3CCCN3C2=O)cc1 [C2-X33-L3]
4 | 105.0 | 96.6 | O=C1C[C@H]2CCCN2C(=O)[C@@H](Cc2ccccc2)NC(=O)[C@@H](NC(=O)c2ccc(Cl)s2)CCSCc2cccc(c2)CSCCN1 [C2-X31-L5]
5 | 55.8 | 36.8 | O=C1C[C@H]2CCCN2C(=O)[C@H](Cc2ccccc2)NC(=O)[C@@H](NC(=O)c2ccc(Cl)s2)CCCSC/C=C/CSCCN1 [C3-X5-L4]
6 | 92.8 | 79.2 | Cc1cccc(C[C@@H]2NC(=O)[C@@H](NC(=O)c3ccc(Cl)s3)CCCSCc3ccccc3CSCCNC(=O)C[C@H]3CCCN3C2=O)c1 [C3-X37-L6]
7 | 100.5 | 95.5 | O=C1C[C@H]2CCCN2C(=O)[C@@H](Cc2ccccc2)NC(=O)[C@@H](NC(=O)c2ccc(Cl)s2)CSCc2cccc(c2)CSCCN1 [C1-X31-L5]
8 | 95.6 | 100.2 | CN1C(=O)[C@@H](NC(=O)c2ccc(Cl)s2)CSC/C=C/CSCCNC(=O)C[C@H]2CCCN2C(=O)[C@@H]1Cc1ccccc1 [C1-X32-L4]
9 | 86.6 | 59.6 | O=C1C[C@H]2CCCN2C(=O)[C@H](Cc2ccccc2)NC(=O)[C@@H](NC(=O)c2ccc(Cl)s2)CCSCc2ccc(cc2)CSCCN1 [C2-X5-L3]
10 | 95.4 | 94.0 | COc1ccc(C[C@@H]2NC(=O)[C@@H](NC(=O)c3ccc(Cl)s3)CCSCc3cccc(n3)CSCCNC(=O)C[C@H]3CCCN3C2=O)cc1 [C2-X33-L1]
11 | 100.9 | 83.4 | Cc1cccc(C[C@@H]2NC(=O)[C@@H](NC(=O)c3ccc(Cl)s3)CCCSCc3cccc(c3)CSCCNC(=O)C[C@H]3CCCN3C2=O)c1 [C3-X37-L5]
12 | 95.4 | 90.2 | Cc1cccc(C[C@@H]2NC(=O)[C@@H](NC(=O)c3ccc(Cl)s3)CSCc3ccc(cc3)CSCCNC(=O)C[C@H]3CCCN3C2=O)c1 [C1-X37-L3]
13 | 105.1 | 97.8 | COc1ccc(C[C@@H]2NC(=O)[C@@H](NC(=O)c3ccc(Cl)s3)CCCSC/C=C/CSCCNC(=O)C[C@H]3CCCN3C2=O)cc1 [C3-X33-L4]
14 | 98.0 | 99.8 | COc1ccc(C[C@@H]2NC(=O)[C@@H](NC(=O)c3ccc(Cl)s3)CSCCS(=O)(=O)CCSCCNC(=O)C[C@H]3CCCN3C2=O)cc1 [C1-X33-L2]
15 | 95.7 | 44.2 | O=C1CSCCNC(=O)C[C@H]2CCCN2C(=O)[C@H](Cc2ccccc2)NC(=O)[C@@H](NC(=O)c2ccc(Cl)s2)CCSC1 [C2-X5-L7]
16 | 96.0 | 100.5 | O=C1C[C@H]2CCCN2C(=O)[C@@H](Cc2ccccc2)NC(=O)[C@@H](NC(=O)c2ccc(Cl)s2)CCSCc2ccc(cc2)CSCCN1 [C2-X31-L3]
17 | 100.2 | 98.8 | O=C1CSCCNC(=O)C[C@H]2CCCN2C(=O)[C@H](Cc2ccc(Cl)cc2)NC(=O)[C@@H](NC(=O)c2ccc(Cl)s2)CSC1 [C1-X34-L7]
18 | 97.6 | 73.7 | Cc1cccc(C[C@@H]2NC(=O)[C@@H](NC(=O)c3ccc(Cl)s3)CCSCCS(=O)(=O)CCSCCNC(=O)C[C@H]3CCCN3C2=O)c1 [C2-X37-L2]
19 | 101.5 | 101.8 | O=C1C[C@H]2CCCN2C(=O)[C@H](Cc2ccc(C(F)(F)F)cc2)NC(=O)[C@@H](NC(=O)c2ccc(Cl)s2)CCSCCS(=O)(=O)CCSCCN1 [C2-X36-L2]
20 | 96.6 | 97.7 | O=C1C[C@H]2CCCN2C(=O)[C@H](Cc2ccc(C(F)(F)F)cc2)NC(=O)[C@@H](NC(=O)c2ccc(Cl)s2)CCCSCc2ccccc2CSCCN1 [C3-X36-L6]
21 | 95.4 | 95.0 | O=C1C[C@H]2CCCN2C(=O)[C@@H](Cc2ccccc2)NC(=O)[C@@H](NC(=O)c2ccc(Cl)s2)CSCc2ccc(cc2)CSCCN1 [C1-X31-L3]

Row | Residual thrombin activity: Top sample | Residual thrombin activity: Equilibrated sample | SMILES
22 | 91.7 | 86.4 | CN1C(=O)[C@@H](NC(=O)c2ccc(Cl)s2)CSCc2ccccc2CSCCNC(=O)C[C@H]2CCCN2C(=O)[C@@H]1Cc1ccccc1 [C1-X32-L6]
23 | 102.7 | 99.9 | COc1ccc(C[C@@H]2NC(=O)[C@@H](NC(=O)c3ccc(Cl)s3)CCSCC(=O)CSCCNC(=O)C[C@H]3CCCN3C2=O)cc1 [C2-X33-L7]
24 | 92.7 | 96.7 | COc1ccc(C[C@@H]2NC(=O)[C@@H](NC(=O)c3ccc(Cl)s3)CSCc3cccc(n3)CSCCNC(=O)C[C@H]3CCCN3C2=O)cc1 [C1-X33-L1]
25 | 103.5 | 94.6 | N#Cc1ccc(C[C@@H]2NC(=O)[C@@H](NC(=O)c3ccc(Cl)s3)CCCSCc3ccc(cc3)CSCCNC(=O)C[C@H]3CCCN3C2=O)cc1 [C3-X35-L3]
26 | 77.6 | 68.5 | O=C1C[C@H]2CCCN2C(=O)[C@H](Cc2ccccc2)NC(=O)[C@@H](NC(=O)c2ccc(Cl)s2)CSCc2cccc(n2)CSCCN1 [C1-X5-L1]
27 | 81.8 | 27.6 | O=C1C[C@H]2CCCN2C(=O)[C@H](Cc2ccccc2)NC(=O)[C@@H](NC(=O)c2ccc(Cl)s2)CCCSCCS(=O)(=O)CCSCCN1 [C3-X5-L2]
28 | 102.7 | 104.5 | O=C1CSCCNC(=O)C[C@H]2CCCN2C(=O)[C@H](Cc2ccc(C(F)(F)F)cc2)NC(=O)[C@@H](NC(=O)c2ccc(Cl)s2)CCSC1 [C2-X36-L7]
29 | 87.4 | 76.1 | O=C1C[C@H]2CCCN2C(=O)[C@H](Cc2ccccc2)NC(=O)[C@@H](NC(=O)c2ccc(Cl)s2)CCSCc2ccccc2CSCCN1 [C2-X5-L6]
30 | 104.9 | 49.9 | COc1ccc(C[C@@H]2NC(=O)[C@@H](NC(=O)c3ccc(Cl)s3)CCSCc3cccc(c3)CSCCNC(=O)C[C@H]3CCCN3C2=O)cc1 [C2-X33-L5]
31 | 99.7 | 99.3 | COc1ccc(C[C@@H]2NC(=O)[C@@H](NC(=O)c3ccc(Cl)s3)CSCc3cccc(c3)CSCCNC(=O)C[C@H]3CCCN3C2=O)cc1 [C1-X33-L5]
32 | 96.3 | 100.4 | N#Cc1ccc(C[C@@H]2NC(=O)[C@@H](NC(=O)c3ccc(Cl)s3)CSCC(=O)CSCCNC(=O)C[C@H]3CCCN3C2=O)cc1 [C1-X35-L7]
33 | 74.4 | 55.6 | O=C1C[C@H]2CCCN2C(=O)[C@H](Cc2ccccc2)NC(=O)[C@@H](NC(=O)c2ccc(Cl)s2)CCCSCc2ccccc2CSCCN1 [C3-X5-L6]
34 | 61.9 | 33.0 | O=C1C[C@H]2CCCN2C(=O)[C@H](Cc2ccccc2)NC(=O)[C@@H](NC(=O)c2ccc(Cl)s2)CCSC/C=C/CSCCN1 [C2-X5-L4]
35 | 84.2 | 60.5 | O=C1C[C@H]2CCCN2C(=O)[C@H](Cc2ccccc2)NC(=O)[C@@H](NC(=O)c2ccc(Cl)s2)CCCSCc2cccc(c2)CSCCN1 [C3-X5-L5]
36 | 102.2 | 103.1 | COc1ccc(C[C@@H]2NC(=O)[C@@H](NC(=O)c3ccc(Cl)s3)CCCSCc3ccc(cc3)CSCCNC(=O)C[C@H]3CCCN3C2=O)cc1 [C3-X33-L3]
37 | 99.1 | 94.7 | O=C1C[C@H]2CCCN2C(=O)[C@H](Cc2ccc(Cl)cc2)NC(=O)[C@@H](NC(=O)c2ccc(Cl)s2)CCCSCc2cccc(n2)CSCCN1 [C3-X34-L1]
38 | 100.6 | 94.8 | Cc1cccc(C[C@@H]2NC(=O)[C@@H](NC(=O)c3ccc(Cl)s3)CCSCc3ccc(cc3)CSCCNC(=O)C[C@H]3CCCN3C2=O)c1 [C2-X37-L3]
39 | 87.1 | 93.9 | O=C1C[C@H]2CCCN2C(=O)[C@H](Cc2ccc(Cl)cc2)NC(=O)[C@@H](NC(=O)c2ccc(Cl)s2)CCSCc2cccc(n2)CSCCN1 [C2-X34-L1]
40 | 98.4 | 104.3 | O=C1C[C@H]2CCCN2C(=O)[C@@H](Cc2ccccc2)NC(=O)[C@@H](NC(=O)c2ccc(Cl)s2)CCSC/C=C/CSCCN1 [C2-X31-L4]
41 | 89.4 | 25.8 | O=C1C[C@H]2CCCN2C(=O)[C@H](Cc2ccccc2)NC(=O)[C@@H](NC(=O)c2ccc(Cl)s2)CCSCCS(=O)(=O)CCSCCN1 [C2-X5-L2]
